Patent US20240239799A1, “(S)-1-(5-((PYRIDIN-3-YL)THIO)PYRAZIN-2-YL)-4'H,6'H-SPIRO[PIPERIDINE-4,5'-PYRROLO [1,2-B]PYRAZOL]-4'-AMINE DERIVATIVES AND SIMILAR COMPOUNDS AS SHP2 INHIBITORS FOR THE TREATMENT OF E.G. CANCER” (C.N.C.C.S. S.C.A.R.L. COLLEZIONE NAZIONALE DEI COMPOSTI …, priority 2021, published 2024)
Like-named read-outs stand apart in the source and are kept apart here.

Assays:
[1] = tested on: phospho-ERK1/2 (Thr202/Tyr204) in KYSE-520 cells; test: Phospho-ERK cellular assay (TR-FRET); type: cell-based; settings: Homo sapiens, KYSE-520, 2 h, read-out: pERK IC50
Procedure, shortened: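 KYSE-520 cells plated overnight, then exposed to compound for 2 h at 37° C and lysed. Phospho-ERK1/2 (Thr202/Tyr204) detected by TR-FRET with Eu-cryptate and D2 antibodies after overnight incubation at rt. IC50 from four-parameter fit, normalised to DMSO (0%) and no-cell (100%) controls.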

[2] = molecular target: T1, SHP-2 enzyme (Met1-Leu525) (Homo sapiens, UniProt Q06124); test: SHP2 inhibition enzymatic assay (DiFMUP substrate, IRS1 peptide activation); type: biochemical; settings: 0.5 nM SHP-2, 500 nM IRS1 peptide, 75 μM DiFMUP; read-out: SHP2wt - IC50
T1 construct: synthetized by Origene, Met1-Leu525, cat #TP750155; purchased Origene TP750155
T1 sequence (Q06124 1-525): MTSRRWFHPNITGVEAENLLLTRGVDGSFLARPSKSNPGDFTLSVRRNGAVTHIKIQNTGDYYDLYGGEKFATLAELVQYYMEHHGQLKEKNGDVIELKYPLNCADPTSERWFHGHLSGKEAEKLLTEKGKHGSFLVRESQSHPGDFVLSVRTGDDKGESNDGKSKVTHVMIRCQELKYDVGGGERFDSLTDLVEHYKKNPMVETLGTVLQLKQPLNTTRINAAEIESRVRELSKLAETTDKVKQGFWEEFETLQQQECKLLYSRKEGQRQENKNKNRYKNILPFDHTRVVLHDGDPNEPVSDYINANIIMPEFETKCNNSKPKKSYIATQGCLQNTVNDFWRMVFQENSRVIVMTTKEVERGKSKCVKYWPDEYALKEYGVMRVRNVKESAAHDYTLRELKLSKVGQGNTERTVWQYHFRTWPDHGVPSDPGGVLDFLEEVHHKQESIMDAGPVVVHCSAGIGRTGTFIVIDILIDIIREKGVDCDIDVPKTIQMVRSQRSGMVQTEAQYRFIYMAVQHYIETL

[3] = molecular target: T2, SHP2 (Avi-G4SG4S-PTPN11(1-525)) (Homo sapiens, UniProt Q06124); test: Binding kinetic assay by surface plasmon resonance (SPR); settings: Biacore T200, single cycle kinetic, 1:1 Langmuir binding model; for koff: triplicate
T2 construct: (Avi-G4SG4S-PTPN11(1-525)); purchased Viva Biotech Ltd
T2 sequence (Q06124 1-525): T1 sequence (Q06124 1-525)
Procedure: A binding assay for measuring SHP2 inhibitors binding kinetic was developed using a Biacore T200 Instrument (Cytiva, Sweden). […] Data analysis was performed by Biacore T200 Evaluation software (Cytiva), and kinetic parameters were evaluated by a global fitting according to a 1:1 Langmuir binding model. Each molecule was tested in triplicate on separate flow channels.

Row | SMILES | IC50 ([1]; KYSE-520 cells, 2 h at 37° C.) [nM] | IC50 [2] [nM] | Residence time 1/koff SPR [3] [s] | koff [3] [s⁻¹] | IC50 [1] [nM]
1 | Nc1nc(N2CCC3(CC2)Cn2ncc(Cl)c2[C@H]3N)cnc1Sc1ccnc(N)c1Cl [Example 5, (S)-1-(6-amino-5-((2-amino-3-chloropyridin-4-yl)thio)pyrazin-2-yl)-3′-chloro-4′H,6′H-spiro[piperidine-4,5′-pyrrolo[1,2-b]pyrazol]-4′-amine] | < 100 | ≤ 50 | 17007 | 5.88e-05 | 
2 | Nc1nccc(Sc2cnc(N3CCC4(CC3)Cn3nccc3[C@H]4N)cn2)c1Cl [Example 6, (S)-1-(5-((2-amino-3-chloropyridin-4-yl)thio)pyrazin-2-yl)-4′H,6′H-spiro[piperidine-4,5′-pyrrolo[1,2-b]pyrazol]-4′-amine] | < 100 | ≤ 50 | 2740 | 0.000365 | 
3 | Nc1nccc(Sc2cnc(N3CCC4(CC3)Cn3ncc(Cl)c3[C@H]4N)cn2)c1Cl [Example 7, (S)-1-(5-((2-amino-3-chloropyridin-4-yl)thio)pyrazin-2-yl)-3′-chloro-4′H,6′H-spiro[piperidine-4,5′-pyrrolo[1,2-b]pyrazol]-4′-amine] | < 100 | ≤ 50 | 3185 | 0.000314 | 
4 | Nc1nccc(Sc2cnc(N3CCC4(CC3)Cn3ncc(Br)c3[C@H]4N)cn2)c1Cl [Example 8, (S)-1-(5-((2-amino-3-chloropyridin-4-yl)thio)pyrazin-2-yl)-3′-bromo-4′H,6′H-spiro[piperidine-4,5′-pyrrolo[1,2-b]pyrazol]-4′-amine] | < 100 | ≤ 50 | 8621 | 0.000116 | 
5 | Nc1nccc(Sc2cnc(N3CCC4(CC3)Cn3ncc(F)c3[C@H]4N)cn2)c1Cl [Example 9, (S)-1-(5-((2-amino-3-chloropyridin-4-yl)thio)pyrazin-2-yl)-3′-fluoro-4′H,6′H-spiro[piperidine-4,5′-pyrrolo[1,2-b]pyrazol]-4′-amine] | < 100 | ≤ 50 | 9615 | 0.000104 | 
6 | Cc1cc2n(n1)CC1(CCN(c3cnc(Sc4ccnc(N)c4Cl)cn3)CC1)[C@@H]2N [Example 11, (S)-1-(5-((2-amino-3-chloropyridin-4-yl)thio)pyrazin-2-yl)-2′-methyl-4′H,6′H-spiro[piperidine-4,5′-pyrrolo[1,2-b]pyrazol]-4′-amine] | < 100 | ≤ 50 | 29412 | 3.4e-05 | 
7 | N[C@@H]1c2ccnn2CC12CCN(c1cnc(Sc3ccnc4c3OC[C@@H]3CCCN43)cn1)CC2 [Example 13, (S)-1-(5-(((S)-6a,7,8,9-tetrahydro-6H-pyrido[3,2-b]pyrrolo[1,2-d][1,4]oxazin-4-yl)thio)pyrazin-2-yl)-4′H,6′H-spiro[piperidine-4,5′-pyrrolo[1,2-b]pyrazol]-4′-amine] | < 100 | ≤ 50 | 3333 | 0.0003 | 
8 | Cc1nn2c(c1Cl)[C@@H](N)C1(CCN(c3cnc(Sc4ccnc(N)c4Cl)cn3)CC1)C2 [Example 14, (S)-1-(5-((2-amino-3-chloropyridin-4-yl)thio)pyrazin-2-yl)-3′-chloro-2′-methyl-4′H,6′H-spiro[piperidine-4,5′-pyrrolo[1,2-b]pyrazol]-4′-amine] | < 100 | ≤ 50 | 14535 | 6.88e-05 | 
9 | Cn1cc2c(Cl)c(Sc3cnc(N4CCC5(CC4)Cn4nccc4[C@H]5N)n4ccnc34)ccc2n1 [Example 16, (S)-1-(8-((4-chloro-2-methyl-2H-indazol-5-yl)thio)imidazo[1,2-c]pyrimidin-5-yl)-4′H,6′H-spiro[piperidine-4,5′-pyrrolo[1,2-b]pyrazol]-4′-amine] | < 100 | ≤ 50 | 16026 | 6.24e-05 | 
10 | Nc1nccc(Sc2cnc(N3CCC4(CC3)Cn3ncc(Cl)c3[C@H]4N)n3ccnc23)c1Cl [Example 18, (S)-1-(8-((2-amino-3-chloropyridin-4-yl)thio)imidazo[1,2-c]pyrimidin-5-yl)-3′-chloro-4′H,6′H-spiro[piperidine-4,5′-pyrrolo[1,2-b]pyrazol]-4′-amine] | < 100 | ≤ 50 | 37175 | 2.69e-05 | 
11 | Nc1nccc(Sc2cnc(N3CCC4(CC3)Cn3nccc3[C@H]4N)c3cncn23)c1Cl [Example 19, (S)-1-(5-((2-amino-3-chloropyridin-4-yl)thio)imidazo[1,5-a]pyrazin-8-yl)-4′H,6′H-spiro[piperidine-4,5′-pyrrolo[1,2-b]pyrazol]-4′-amine] | < 100 | ≤ 50 | 5464 | 0.000183 | 
12 | Cc1nc(N2CCC3(CC2)Cn2nccc2[C@H]3N)cc(=O)n1-c1cccc(Cl)c1Cl [Example 77, (S)-6-(4′-amino-4′H,6′H-spiro[piperidine-4,5′-pyrrolo[1,2-b]pyrazol]-1-yl)-3-(2,3-dichlorophenyl)-2-methylpyrimidin-4(3H)-one] | 100 to 500 | ≤ 50 |  |  | 
13 | Cc1nc(N2CCC3(CC2)Cn2nccc2[C@H]3N)c(Cl)c(=O)n1-c1cccc(Cl)c1Cl [Example 78, (S)-6-(4′-amino-4′H,6′H-spiro[piperidine-4,5′-pyrrolo[1,2-b]pyrazol]-1-yl)-5-chloro-3-(2,3-dichlorophenyl)-2-methylpyrimidin-4(3H)-one] | 100 to 500 | ≤ 50 |  |  | 
14 | N[C@@H]1c2ccnn2CC12CCN(c1cnc(Sc3ccnc4c(F)cccc34)cn1)CC2 [Example 79, (S)-1-(5-((8-fluoroquinolin-4-yl)thio)pyrazin-2-yl)-4′H,6′H-spiro[piperidine-4,5′-pyrrolo[1,2-b]pyrazol]-4′-amine] | < 100 | ≤ 50 |  |  | 
15 | N[C@@H]1c2ccnn2CC12CCN(c1cnc(Sc3ccncc3Cl)cn1)CC2 [Example 80, (S)-1-(5-((3-chloropyridin-4-yl)thio)pyrazin-2-yl)-4′H,6′H-spiro[piperidine-4,5′-pyrrolo[1,2-b]pyrazol]-4′-amine] | < 100 | ≤ 50 |  |  | 
16 | Cc1nccc(Sc2cnc(N3CCC4(CC3)Cn3nccc3[C@H]4N)cn2)c1F [Example 81, (S)-1-(5-((3-fluoro-2-methylpyridin-4-yl)thio)pyrazin-2-yl)-4′H,6′H-spiro[piperidine-4,5′-pyrrolo[1,2-b]pyrazol]-4′-amine] | < 100 | ≤ 50 |  |  | 
17 | N[C@@H]1c2cccn2CC12CCN(c1cnc(Sc3ccnc(-n4cccn4)c3Cl)cn1)CC2 [Example 82, (S)-1-(5-((3-chloro-2-(1H-pyrazol-1-yl)pyridin-4-yl)thio)pyrazin-2-yl)-1′H,3′H-spiro[piperidine-4,2′-pyrrolizin]-1′-amine] | < 100 | ≤ 50 |  |  | 
18 | N[C@@H]1c2ccnn2CC12CCN(c1cnc(Sc3cccc(Cl)c3Cl)cn1)CC2 [Example 83, (S)-1-(5-((2,3-dichlorophenyl)thio)pyrazin-2-yl)-4′H,6′H-spiro[piperidine-4,5′-pyrrolo[1,2-b]pyrazol]-4′-amine] | < 100 | ≤ 50 |  |  | 
19 | N[C@@H]1c2ccnn2CC12CCN(c1ccc(Sc3cccc(Cl)c3Cl)nc1)CC2 [Example 84, (S)-1-(6-((2,3-dichlorophenyl)thio)pyridin-3-yl)-4′H,6′H-spiro[piperidine-4,5′-pyrrolo[1,2-b]pyrazol]-4′-amine] | < 100 | ≤ 50 |  |  | 
20 | N[C@@H]1c2ccnn2CC12CCN(c1nccn3c(-c4cccc(Cl)c4Cl)ncc13)CC2 [Example 85, (S)-1-(3-(2,3-dichlorophenyl)imidazo[1,5-a]pyrazin-8-yl)-4′H,6′H-spiro[piperidine-4,5′-pyrrolo[1,2-b]pyrazol]-4′-amine] | < 100 | ≤ 50 |  |  | 
21 | Cc1nc(N2CCC3(CC2)Cn2cccc2[C@H]3N)cc(=O)n1-c1cccc(Cl)c1Cl [Example 86, (S)-6-(1′-amino-1′H,3′H-spiro[piperidine-4,2′-pyrrolizin]-1-yl)-3-(2,3-dichlorophenyl)-2-methylpyrimidin-4(3H)-one] |  | ≤ 50 |  |  | 100 to 500
